Experimental data: ChEMBL document CHEMBL5370610, “Urotensin II Receptor Modulation with 1,3,4-Benzotriazepin-2-one Tetrapeptide Mimics” (J Med Chem, 2023)
Activity calls are given as the source filed them. The rule behind the calls is not given here.

How the values were obtained:
HEK293 [1] = experiment: Antagonist activity at hUII-activated RLucII-tagged Galpha-q (unknown origin) expressed in HEK293 cells co-expressing human UT/GFP10-tagged G-gamma at 10^-6 M by BRET assay (reference value: 100 +/- 4 %); assay type: cell-based; conditions: filed as antagonist, dose 1.0 10^-6M
Beta-arrestin-1 [2] = molecular target: T1, Beta-arrestin-1 (Homo sapiens, UniProt P49407); experiment: Agonist activity at RLucII/GFP10-tagged beta-arrestin-1 (unknown origin) recruitment expressed in HEK293 cells co-expressing human UT assessed as beta-arrestin recruitment by BRET assay; assay type: cell-based
T1 sequence (P49407 whole entry): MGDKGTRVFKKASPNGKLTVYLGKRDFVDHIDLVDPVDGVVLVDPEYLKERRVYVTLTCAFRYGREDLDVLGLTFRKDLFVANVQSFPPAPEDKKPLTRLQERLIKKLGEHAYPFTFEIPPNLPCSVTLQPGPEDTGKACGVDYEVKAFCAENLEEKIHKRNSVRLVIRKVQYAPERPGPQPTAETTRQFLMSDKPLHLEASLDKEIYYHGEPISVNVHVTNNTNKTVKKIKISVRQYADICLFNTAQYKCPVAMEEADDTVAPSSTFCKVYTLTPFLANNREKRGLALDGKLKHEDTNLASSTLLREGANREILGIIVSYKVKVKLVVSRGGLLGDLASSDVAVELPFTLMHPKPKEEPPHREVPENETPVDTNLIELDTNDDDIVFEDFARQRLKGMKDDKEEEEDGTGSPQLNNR

[3] = molecular target: T2, Guanine nucleotide-binding protein G(q) subunit alpha (Homo sapiens) (UniProt P50148); experiment: Antagonist activity at URP-activated RLucII-tagged Galpha-q (unknown origin) expressed in HEK293 cells co-expressing human UT/GFP10-tagged G-gamma at 10^-6 M by BRET assay (reference value: 100 +/- 4 %); assay type: cell-based; conditions: filed as antagonist, dose 1.0 10^-6M
T2 sequence (whole entry): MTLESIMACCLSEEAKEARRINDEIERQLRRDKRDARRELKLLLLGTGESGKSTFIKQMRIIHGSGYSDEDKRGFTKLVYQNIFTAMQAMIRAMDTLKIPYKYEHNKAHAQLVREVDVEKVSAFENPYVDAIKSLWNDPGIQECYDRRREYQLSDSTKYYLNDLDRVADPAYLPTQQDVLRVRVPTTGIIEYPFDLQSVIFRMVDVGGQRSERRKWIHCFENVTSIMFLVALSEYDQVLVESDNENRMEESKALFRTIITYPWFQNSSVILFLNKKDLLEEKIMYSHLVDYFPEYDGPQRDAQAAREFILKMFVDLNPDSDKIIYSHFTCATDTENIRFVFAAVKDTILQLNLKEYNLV

[4] = molecular target: T2, Guanine nucleotide-binding protein G(q) subunit alpha (Homo sapiens); experiment: Agonist activity at RLucII-tagged Galpha-q (unknown origin) expressed in HEK293 cells co-expressing human UT/GFP10-tagged G-gamma assessed as activation of Galpha-q at 10^-5 M by BRET assay; assay type: cell-based; conditions: dose 1.0 10^-5M
[5] = Agonist activity at RLucII-tagged Galpha-i (unknown origin) expressed in HEK293 cells co-expressing human UT/GFP10-tagged G-gamma assessed as activation of Galpha-i by BRET assay; assay type: cell-based
Aorta [6] = experiment: Ex vivo modulatory effect on hUII-induced contractile activity in Sprague-Dawley rat aortic ring at 10^-6 M pretreated for 30 mins followed by hUII addition (reference value: 100 +/- 9 %); assay type: functional; conditions: 0.5 h, dose 1 10^-6M
HEK293 [7] = experiment: Agonist activity at RLucII-tagged Galpha-13 (unknown origin) expressed in HEK293 cells co-expressing human UT/GFP10-tagged G-gamma assessed as activation of Galpha-13 at 10^-5 M by BRET assay relative to hUII; assay type: cell-based; conditions: filed as agonist, dose 1.0 10^-5M
[8] = Agonist activity at RLucII-tagged Galpha-13 (unknown origin) expressed in HEK293 cells co-expressing human UT/GFP10-tagged G-gamma assessed as activation of Galpha-13 by BRET assay; assay type: cell-based
[9] = molecular target: T3, Guanine nucleotide-binding protein G(q) subunit alpha (Homo sapiens, UniProt P50148); experiment: Antagonist activity at hUII-activated RLucII-tagged Galpha-q (unknown origin) expressed in HEK293 cells co-expressing human UT/GFP10-tagged G-gamma by BRET assay (reference value: 8.26 +/- 0.09); assay type: cell-based
T3 sequence (P50148 whole entry): T2 sequence (whole entry)

Aorta [10] = experiment: Ex vivo modulatory effect on hUII-induced contractile activity in Sprague-Dawley rat aortic ring (reference value: 8.37 +/- 0.08); assay type: functional, tissue-based
HEK293 [11] = experiment: Agonist activity at RLucII-tagged Galpha-i (unknown origin) expressed in HEK293 cells co-expressing human UT/GFP10-tagged G-gamma assessed as activation of Galpha-i at 10^-5 M by BRET assay relative to hUII; assay type: cell-based; conditions: filed as agonist, dose 1.0 10^-5M
Aorta [12] = experiment: Ex vivo modulatory effect on URP-induced contractile activity in Sprague-Dawley rat aortic ring (reference value: 8.06 +/- 0.27); assay type: functional, tissue-based
[13] = molecular target: T3, Guanine nucleotide-binding protein G(q) subunit alpha; experiment: Antagonist activity at URP-activated RLucII-tagged Galpha-q (unknown origin) expressed in HEK293 cells co-expressing human UT/GFP10-tagged G-gamma by BRET assay (reference value: 7.33 +/- 0.10); assay type: cell-based
Beta-arrestin-1 [14] = molecular target: T1, Beta-arrestin-1; experiment: Agonist activity at RLucII/GFP10-tagged beta-arrestin-1 (unknown origin) expressed in HEK293 cells co-expressing human UT assessed as beta-arrestin recruitment at 10^-5 M by BRET assay relative to hUII; assay type: cell-based; conditions: filed as agonist, dose 1.0 10^-5M
Aorta [15] = experiment: Ex vivo modulatory effect on URP-induced contractile activity in Sprague-Dawley rat aortic ring at 10^-6 M pretreated for 30 mins followed by URP addition (reference value: 100 +/- 8 %); assay type: functional; conditions: 0.5 h, dose 1 10^-6M
[16] = molecular target: T3, Guanine nucleotide-binding protein G(q) subunit alpha; experiment: Agonist activity at RLucII-tagged Galpha-q (unknown origin) expressed in HEK293 cells co-expressing human UT/GFP10-tagged G-gamma assessed as activation of Galpha-q by BRET assay; assay type: cell-based
[17] = molecular target: T2, Guanine nucleotide-binding protein G(q) subunit alpha (Homo sapiens); experiment: Agonist activity at RLucII-tagged Galpha-q (unknown origin) expressed in HEK293 cells co-expressing human UT/GFP10-tagged G-gamma assessed as activation of Galpha-q at 10^-5 M by BRET assay relative to hUII; assay type: cell-based; conditions: dose 1.0 10^-5M
[18] = Antagonist activity at hUII-activated RLucII-tagged Galpha-i (unknown origin) expressed in HEK293 cells co-expressing human UT/GFP10-tagged G-gamma by BRET assay (reference value: 7.41 +/- 0.15); assay type: cell-based
[19] = Antagonist activity at URP-activated RLucII-tagged Galpha-i (unknown origin) expressed in HEK293 cells co-expressing human UT/GFP10-tagged G-gamma by BRET assay (reference value: 7.10 +/- 0.19); assay type: cell-based
HEK293 [20] = experiment: Antagonist activity at hUII-activated RLucII-tagged Galpha-i (unknown origin) expressed in HEK293 cells co-expressing human UT/GFP10-tagged G-gamma at 10^-6 M by BRET assay (reference value: 100 +/- 5 %); assay type: cell-based; conditions: filed as antagonist, dose 1.0 10^-6M
HEK293 [21] = experiment: Antagonist activity at URP-activated RLucII-tagged Galpha-i (unknown origin) expressed in HEK293 cells co-expressing human UT/GFP10-tagged G-gamma at 10^-6 M by BRET assay (reference value: 100 +/- 7 %); assay type: cell-based; conditions: filed as antagonist, dose 1.0 10^-6M
HEK293 [22] = experiment: Agonist activity at RLucII-tagged Galpha-i (unknown origin) expressed in HEK293 cells co-expressing human UT/GFP10-tagged G-gamma assessed as activation of Galpha-i at 10^-5 M by BRET assay; assay type: cell-based; conditions: dose 1.0 10^-5M

Row | SMILES | Emax (HEK293 [1]) [%] | EC50 (Beta-arrestin-1 [2]) [nM] | Emax [3] [%] | Activity [4] | EC50 [5] [nM] | Emax at 1 µM (Aorta [6]) [%] | Emax (HEK293 [7]) [%] | EC50 [8] [nM] | EC50 [9] [nM] | EC50 (Aorta [10]) [nM] | Emax (HEK293 [11]) [%] | EC50 (Aorta [12]) [nM] | EC50 [13] [nM] | Emax (Beta-arrestin-1 [14]) [%] | Emax at 1 µM (Aorta [15]) [%] | EC50 [16] [nM] | EC50 [18] [nM] | EC50 [19] [nM] | Emax (HEK293 [20]) [%] | Emax (HEK293 [21]) [%] | further results
1 | NCCCCN1N=C(CCc2ccc(O)cc2)c2ccc(C(=O)NCCOc3ccccc3)cc2N(Cc2ccc(-c3ccccc3)cc2)C1=O | 95 | 1780 | 81 | inactive | > 10000 | 197 | 215 | 288 | 6.92 | 6.17 | 51 | 16.2 | 34.7 | 198 | 83 | – | – | – | – | – | –
2 | NCCCCN1N=C(/C=C/c2ccc(O)cc2)c2ccc(C(=O)NCCCc3ccccc3)cc2N(Cc2ccc(-c3ccccc3)cc2)C1=O | – | 851 | – | – | 1170 | 123 | 104 | 16.2 | – | 14.5 | 75 | 1.55 | – | 108 | 161 | > 10000 | – | – | – | – | Emax [17]: 26%
3 | NCCCCN1N=C(/C=C/c2ccc(O)cc2)c2ccc(C(=O)NCC(c3ccccc3)c3ccccc3)cc2N(Cc2ccc(-c3ccccc3)cc2)C1=O | 83 | 95.5 | 103 | inactive | – | 77 | 198 | 200 | 6.92 | 5.5 | – | 44.7 | 25.1 | 76 | 56 | – | 53.7 | 102 | 95 | 89 | Activity (HEK293 [22]): inactive
4 | NCCCCN1N=C(CCc2ccc(O)cc2)c2ccc(C(=O)NCCCc3ccccc3)cc2N(Cc2ccc(-c3ccccc3)cc2)C1=O | 65 | 174 | 76 | inactive | > 10000 | 143 | 119 | 21.9 | 5.89 | 1.02 | 45 | 4.07 | 18.6 | 165 | 112 | – | – | – | – | – | –
5 | COc1ccc(/C=C/C2=NN(CCCCN)C(=O)N(Cc3ccc(-c4ccccc4)cc3)c3cc(C(=O)NCc4ccccc4)ccc32)cc1 | 90 | 9.33 | 79 | inactive | – | 85 | 122 | 81.3 | 13.2 | 0.661 | – | 8.13 | 43.7 | 98 | 27 | – | 11.7 | 148 | 80 | 63 | Activity (HEK293 [22]): inactive
6 | CC(C)[C@H](NC(=O)[C@@H]1CSSC[C@H](NC(=O)[C@H](C)N)C(=O)N[C@@H](Cc2ccccc2)C(=O)N[C@@H](Cc2c[nH]c3ccccc23)C(=O)N[C@@H](CCCCN)C(=O)N[C@@H](Cc2ccc(O)cc2)C(=O)N1)C(=O)O | – | – | – | – | – | – | – | – | – | – | – | – | – | – | – | 8.91 | – | – | – | – | Emax ([17]; filed as agonist): 101%
